Patent US20060147382A1, “Synergistic combination comprising roflumilast and an anticholinergic agent selected from ipratropium, oxitropium and tiotropium salts for the treatment of respiratory diseases” (Altana Pharma AG, priority 2003, published 2006)

Test system: methacholine-induced bronchoconstriction in guinea pigs
Test: Inhibition of methacholine-induced bronchoconstriction in anaesthetized, mechanically ventilated guinea pigs
Assay type: in vivo, guinea pig
Details: for Effect on methacholine-induced bronchospasm (in words): versus placebo, ANOVA and Dunnett's test, ROFLUMILAST 4 mg/kg intratracheally, tiotropium-bromide 1 μg/kg i.v.
Method: Inhibition of Methacholine-Induced Bronchoconstriction in Guinea Pigs by ROFLUMILAST in combination with tiotropium-bromide
To assess the inhibitory effect of tiotropium-bromide, ROFLUMILAST, and the combination of both compounds on methacholine-induced bronchoconstriction in anaesthetized, mechanically ventilated guinea pigs.
Male Dunkin Hartley guinea pigs; body weight 350-450 g when performing the experiments.
75 min before methacholine-induced bronchospasm (at −75 min) animals were anaesthetized with urethane i.p. (1.2 g/kg). At −55 min for I.v. injections the right jugular vein and for ventilation the trachea was cannulated. At −45 min NaCl 0.9% or tiotropium-bromide was administered I.v. (1 μg/kg). At −30 min lactose (10 mg/kg) or ROFLUMILAST (4 mg/kg) mixed with lactose was administered intratracheally by a dry powder aerolizer. At −10 min pancuronium-bromide (1.5 mg/kg) was administered I.v. to abolish spontaneous breathing. Animals were mechanically ventilated with 60 breath/min and a tidal volume of 7 ml/kg. Dynamic lung compliance (COM) and airway conductance (CON) were calculated with the help of a computer system from airflow and ventilation pressure signals. At t=0 min methacholine was administered i.v. (60 μg/kg) to induce bronchoconstriction.
COM and CON were determined up to 120 s after methacholine-induced bronchospasm. AUCs for 0 to 120s were determined. Inhibition was calculated based on the AUC data. Data are shown as mean ±SEM. Results were taken to be significant if p<0.05 versus placebo (ANOVA and Dunnett's multiple comparison test)

[1] = male Dunkin Hartley guinea pigs, methacholine 60 μg/kg i.v., ROFLUMILAST 4 mg/kg intratracheally at -30 min, tiotropium-bromide 1 μg/kg i.v. at -45 min

SMILES	Inhibition of methacholine-induced airway conductance (CON) decrease, based on AUC 0 to 120 s [1] [%]	Inhibition of methacholine-induced dynamic lung compliance (COM) decrease, based on AUC 0 to 120 s [1] [%]	Effect on methacholine-induced bronchospasm (in words)
C[N+]1(C)[C@@H]2C[C@@H](OC(=O)C(O)(c3cccs3)c3cccs3)C[C@H]1[C@@H]1O[C@@H]12 [tiotropium-bromide]	5.9	12	no significant effect
O=C(Nc1c(Cl)cncc1Cl)c1ccc(OC(F)F)c(OCC2CC2)c1 [ROFLUMILAST, 3-cyclopropylmethoxy-4-difluoromethoxy-N-(3,5-dichloropyrid-4-yl)benzamide]	5.6		no significant effect
